# Where two headings read alike, the source gives them in different places.
# Tests used:
# Assay in all cases: Chymotrypsin coupled prolyl-isomerase assay
# [1] = target: T1, CypG (Homo sapiens, UniProt Q13427); format: biochemical
# T1 construct: PPIG (UniProtKB Entry Q13427: residues 1–179); His6 with thrombin site (pET28a LIC leader) (N); host or cells: E. coli BL21(DE3)
# T1 sequence (Q13427 1-179): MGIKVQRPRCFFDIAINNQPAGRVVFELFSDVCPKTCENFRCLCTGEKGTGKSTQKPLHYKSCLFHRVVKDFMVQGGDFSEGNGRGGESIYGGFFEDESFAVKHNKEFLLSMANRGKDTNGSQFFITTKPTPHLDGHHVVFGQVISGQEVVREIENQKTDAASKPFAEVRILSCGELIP
# How it was run: (§1)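 5 nM Cyp, HEPES pH 7.3/NaCl/Triton buffer, 2–3 °C; cpd 5 min, chymotrypsin 25 µM 5 min, then Suc-AAPF-AMC 5 µM in LiCl/TFE. Kinetic fluorescence 330 s. Per-well rate constants, normalized, IC50 from nonlinear fit.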
# [2] = target: T2, CypE (Homo sapiens, UniProt Q9UNP9); format: biochemical
# T2 construct: PPIE (UniProtKB Entry Q9UNP9: residues 131–301); host or cells: E. coli BL21(DE3)
# How it was run: as §1
# [3] = target: T3, CypH (Homo sapiens, UniProt O43447); format: biochemical
# T3 construct: PPIH (UniProtKB Entry O43447: residues 1–177); His6 with TEV site (2BT vector leader) (N); made in house; host or cells: E. coli BL21(DE3)
# How it was run: as §1
# [4] = target: T4, CypA (Homo sapiens, UniProt P62937); format: biochemical; details: read-out: IC50 CypA
# T4 construct: PPIA (UniProtKB Entry P62937: residues 1–165); made in house; host or cells: E. coli BL21(DE3)
# How it was run: as §1
# [5] = target: T5, CypC (Homo sapiens, UniProt P45877); format: biochemical
# T5 construct: PPIC (UniProtKB Entry P45877: residues 24–212); host or cells: E. coli BL21(DE3)
# How it was run: as §1
# [6] = target: T6, PPIL1 (Homo sapiens, UniProt Q9Y3C6); format: biochemical
# T6 construct: PPIL1 (UniProtKB Entry Q9Y3C6: residues 1–166); made in house; host or cells: E. coli BL21(DE3)
# T6 sequence (Q9Y3C6 1-166): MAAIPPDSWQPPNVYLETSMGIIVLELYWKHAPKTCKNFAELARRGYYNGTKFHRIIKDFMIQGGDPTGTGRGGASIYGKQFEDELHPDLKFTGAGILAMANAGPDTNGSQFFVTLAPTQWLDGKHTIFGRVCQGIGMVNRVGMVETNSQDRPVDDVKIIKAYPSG
# [7] = target: Cyp40 (Homo sapiens, UniProt Q08752)
# How it was run: as §1
# [8] = target: T7, NKTR (Homo sapiens, UniProt P30414); format: biochemical
# T7 construct: NKTR (UniProtKB Entry P30414: residues 7–179); host or cells: E. coli BL21(DE3)
# T7 sequence (P30414 7-179): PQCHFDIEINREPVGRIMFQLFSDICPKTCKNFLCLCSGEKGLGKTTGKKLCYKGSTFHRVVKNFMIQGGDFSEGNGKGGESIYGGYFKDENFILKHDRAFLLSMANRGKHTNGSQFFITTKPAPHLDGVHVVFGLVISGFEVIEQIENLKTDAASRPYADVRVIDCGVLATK
# Protocol: Adapting a previously described protocol[51], with an Agilent Bravo Velocity 11 with a 384ST head, 90 µL assay buffer (25 mM HEPES pH 7.3, 100 mM NaCl, 0.01% Triton X-100) containing 5.28 nM cyclophilin was added into a flat, clear-bottom, black 384-well plate pre-chilled in a Corning CoolBox at 2–3 °C. Five microliters of compound pre-dissolved in 5% DMSO/assay buffer was then added to appropriate wells and incubated at 2–3 °C for 5 min. Five microliters of 0.5 mM α-chymotrypsin from bovine pancreas (Type II, lyophilized powder, Millipore-Sigma) in 20% 1 mM HCl/Assay Buffer was then added to each well and incubated at 2–3 °C for 5 min. […] Using the internal liquid handling system of the FLIPR, 1 µL 0.5 mM Suc-AAPF-AMC (Chymotrypsin Substrate II, Millipore-Sigma) dissolved in 0.55 M LiCl/2,2,2-trifluoroethanol was added to each well, which was then mixed for 5 s, followed by immediate fluorescence measurements every 1 s for 330 s using a 360–380 nm excitation LED module and a 400–460 nm emission filter. Final concentrations of the plate include 5 nM cyclophilin, 0.25% DMSO, 25 µM α-chymotrypsin, 5 µM Suc-AAPF-AMC. Raw fluorescence data was analyzed by non-linear regression analysis with Prism v.9 by fitting one-phase association curves to each well. Analyses were halted after the calculated maximum fluorescent value owing to observed fluorescent bleaching during the sustained fluorescent plateau. Rate constants calculated for each well (s^−1) were then normalized to substrate only (no prolyl-isomerase) and enzyme + substrate only controls. IC50 values were calculated as the value at which 50% inhibition was achieved on the non-linear regression fitted curve of each compound.
# T4 sequence (P62937 whole entry, the tested form may be a part): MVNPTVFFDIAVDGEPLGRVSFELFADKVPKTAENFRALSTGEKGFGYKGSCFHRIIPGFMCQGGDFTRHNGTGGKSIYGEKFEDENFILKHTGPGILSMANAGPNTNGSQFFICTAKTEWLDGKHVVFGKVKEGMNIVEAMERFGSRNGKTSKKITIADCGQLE
# T3 sequence (O43447 whole entry, the tested form may be a part): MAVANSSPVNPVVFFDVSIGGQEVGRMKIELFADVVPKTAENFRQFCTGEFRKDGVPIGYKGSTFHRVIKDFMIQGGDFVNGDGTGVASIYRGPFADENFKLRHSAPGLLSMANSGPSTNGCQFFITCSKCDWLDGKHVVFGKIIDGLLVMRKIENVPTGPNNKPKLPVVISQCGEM
# T2 sequence (Q9UNP9 131-301): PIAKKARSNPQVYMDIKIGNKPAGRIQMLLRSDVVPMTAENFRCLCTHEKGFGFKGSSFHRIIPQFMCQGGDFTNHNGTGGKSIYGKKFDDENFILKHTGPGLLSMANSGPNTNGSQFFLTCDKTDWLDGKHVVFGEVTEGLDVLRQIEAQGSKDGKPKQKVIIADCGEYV
# T5 sequence (P45877 24-212): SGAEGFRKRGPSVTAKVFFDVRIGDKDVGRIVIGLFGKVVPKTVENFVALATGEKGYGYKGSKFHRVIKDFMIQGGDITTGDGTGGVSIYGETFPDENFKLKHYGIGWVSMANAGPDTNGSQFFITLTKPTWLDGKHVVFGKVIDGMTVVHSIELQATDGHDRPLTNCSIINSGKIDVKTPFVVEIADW
# Sequence of Cyp40 (Q08752 1-183): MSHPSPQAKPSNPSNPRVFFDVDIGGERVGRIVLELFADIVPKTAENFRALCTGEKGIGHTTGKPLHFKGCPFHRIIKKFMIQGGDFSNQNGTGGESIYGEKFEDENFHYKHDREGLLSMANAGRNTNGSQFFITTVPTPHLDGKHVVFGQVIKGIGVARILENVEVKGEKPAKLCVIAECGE
compound,measurement,setting,value
NCCOCCNC(=O)[C@@H]1CCNC(=O)/C=C/C(=O)N2CCC[C@](Cc3ccccc3)(C2)C(=O)N[C@@H](Cc2ccc(-c3ccc(C(CC(=O)O)CC(=O)O)cc3)cc2)C(=O)NCc2ccccc2CC(=O)N1 [Compound B53],IC50,"[1]; Independent replicate 1, read-out: IC50 CypG",~50 µM
same,IC50,"[1]; Independent replicate 2, read-out: IC50 CypG",> 50 µM
same,IC50,"[1]; Independent replicate 3, read-out: IC50 CypG",> 50 µM
same,IC50,"[1]; Independent replicate 4, read-out: IC50 CypG",> 50 µM
same,IC50,"[1]; prolyl-isomerase inhibition, 5 nM cyclophilin, read-out: IC50 CypG",> 50 µM
same,IC50,"[1]; wild-type CypG, read-out: Wild-Type Cyclophilin Prolyl Isomerase Inhibition IC50 Values, CypG",> 50 µM
same,IC50,"[2]; Independent replicate 1, read-out: IC50 CypE",0.6 ± 0.3 µM
same,IC50,"[2]; Independent replicate 2, read-out: IC50 CypE",0.9 ± 0.3 µM
same,IC50,"[2]; Independent replicate 3, read-out: IC50 CypE",0.6 ± 0.2 µM
same,IC50,"[2]; Independent replicate 4, read-out: IC50 CypE",1.1 ± 0.6 µM
same,IC50,"[2]; wild-type CypE, read-out: Wild-Type Cyclophilin Prolyl Isomerase Inhibition IC50 Values, CypE",0.8 µM
same,IC50,"[3]; Independent replicate 1, read-out: IC50 CypH",> 50 µM
same,IC50,"[3]; Independent replicate 2, read-out: IC50 CypH",> 50 µM
same,IC50,"[3]; Independent replicate 3, read-out: IC50 CypH",> 50 µM
same,IC50,"[3]; Independent replicate 4, read-out: IC50 CypH",> 50 µM
same,IC50,"[3]; prolyl-isomerase inhibition, 5 nM cyclophilin, read-out: IC50 CypH",> 50 µM
same,IC50,"[3]; wild-type CypH, read-out: Wild-Type Cyclophilin Prolyl Isomerase Inhibition IC50 Values, CypH",> 50 µM
same,IC50,[4]; Independent replicate 1,3 ± 2 µM
same,IC50,[4]; Independent replicate 2,3 ± 1 µM
same,IC50,[4]; Independent replicate 3,4 ± 2 µM
same,IC50,[4]; Independent replicate 4,4 ± 1 µM
same,IC50,"[4]; prolyl-isomerase inhibition, 5 nM cyclophilin",3.4 µM
same,IC50,"[5]; Independent replicate 1, read-out: IC50 CypC",> 50 µM
same,IC50,"[5]; Independent replicate 2, read-out: IC50 CypC",> 50 µM
same,IC50,"[5]; Independent replicate 3, read-out: IC50 CypC",> 50 µM
same,IC50,"[5]; Independent replicate 4, read-out: IC50 CypC",> 50 µM
same,IC50,"[5]; prolyl-isomerase inhibition, 5 nM cyclophilin, read-out: IC50 CypC",> 50 µM
same,IC50,"[5]; wild-type CypC, read-out: Wild-Type Cyclophilin Prolyl Isomerase Inhibition IC50 Values, CypC",> 50 µM
same,IC50,"[6]; Independent replicate 1, read-out: IC50 PPIL1",~30 µM
same,IC50,"[6]; Independent replicate 2, read-out: IC50 PPIL1",> 50 µM
same,IC50,"[6]; Independent replicate 3, read-out: IC50 PPIL1",> 50 µM
same,IC50,"[6]; Independent replicate 4, read-out: IC50 PPIL1",> 50 µM
same,IC50,"[6]; prolyl-isomerase inhibition, 5 nM cyclophilin, read-out: IC50 PPIL1",> 50 µM
same,IC50,"[6]; wild-type PPIL1, read-out: Wild-Type Cyclophilin Prolyl Isomerase Inhibition IC50 Values, PPIL1",> 50 µM
same,IC50,"[7]; IC50 Cyp40, Independent replicate 1",> 50 µM
same,IC50,"[7]; IC50 Cyp40, Independent replicate 2",> 50 µM
same,IC50,"[7]; IC50 Cyp40, Independent replicate 3",> 50 µM
same,IC50,"[7]; IC50 Cyp40, Independent replicate 4",> 50 µM
same,IC50,"[7]; IC50 Cyp40, prolyl-isomerase inhibition, 5 nM cyclophilin",> 50 µM
same,IC50,"[7]; Wild-Type Cyclophilin Prolyl Isomerase Inhibition IC50 Values, Cyp40, wild-type Cyp40",> 50 µM
same,IC50,"[8]; Independent replicate 1, read-out: IC50 NKTR",> 50 µM
same,IC50,"[8]; Independent replicate 2, read-out: IC50 NKTR",> 50 µM
same,IC50,"[8]; Independent replicate 3, read-out: IC50 NKTR",> 50 µM
same,IC50,"[8]; Independent replicate 4, read-out: IC50 NKTR",> 50 µM
same,IC50,"[8]; prolyl-isomerase inhibition, 5 nM cyclophilin, read-out: IC50 NKTR",> 50 µM
same,IC50,"[8]; wild-type NKTR, read-out: Wild-Type Cyclophilin Prolyl Isomerase Inhibition IC50 Values, NKTR",> 50 µM
